In one data set the test system is mice. The settings on record: orally or subcutaneously; cited from earlier work.
The next data set concerns rats. The settings on record: orally or subcutaneously; cited from earlier work.
The test system of data set [1] is NIH 3T3 murine fibroblast cell line. Nature of the data set: Cytotoxicity, MTT assay in 3T3 fibroblasts. The class given is cell-based, mouse. As to the method:
(§1) FIG. 9. Cell survival curves as measured by MTT assay for brassinosteroids 1-9 against the murine fibroblast cell line NIH-3T3. Cells were incubated with various concentrations of brassinosteroids (0.3-30 μM) for 24 h at 37° C. The mean absorbance of the control cells represented 100% cell proliferation, and the mean absorbance of treated cells was related to control values to determine sensitivity. Error bars represent standard error (n=6) from mean cell proliferation as determined by repeated experiments.
(§2) In various aspects, cell viability is measured and the effects of doses of compound and test reagents are tested in cell lines. In some aspects, cell viability was measured by the MTT (3-(4,5-Dimethylthiazol-2-yl)-2,5-diphenyltetrazolium bromide) assay in triplicate (Mosmann et al., J. Immunol. Methods 65:55-63, 1983) and quantified spectrophotometrically at 550 nm using a microplate reader (Molecular Devices, Sunnyvale, Calif.).
(§3) 3T3 fibroblasts were seeded in a 96-well flat bottom plate at a density of 1×10^4 cells/well. Cell viability was measured by an MTT (3-(4,5-Dimethylthiazol-2-yl)-2,5-diphenyltetrazolium bromide) assay in triplicate (0.3-30 μM of test substance for […]) essentially as described by Mosmann (J. Immunol. Methods 65, 55-63, 1983) and quantified spectrophotometrically at 550 nm using a microplate reader (Molecular Devices, Sunnyvale, Calif.). […] For cell proliferation studies, cells were treated in triplicate with 0.1-10 μM of test substance for 24 h and assayed using a BrdU (5-bromo-2′-deoxyuridine) kit from Amersham (Uppsala, Sweden).
For orientation: Tetrazolium dyes change colour on reduction, which living cells bring about.

The nature of data set [2]: Cytotoxicity, MTT assay in 3T3 fibroblasts. In kind it is cell-based, mouse. Conditions: mouse. As to the method: as §1, §2, §3
The test system of data set [3] is L6 rat myotubes. The data set is described as follows: Protein degradation, release of acid-soluble [3H]-phenylalanine. In kind it is cell-based. The settings on record: 10 μM, 4 h. As to the method: In some aspects, cell culture experiments were carried out. Rat L6 skeletal muscle cell line CRL-1458 was obtained from ATCC (Manassas, Va.). Myoblasts were routinely maintained in Dulbecco's modified Eagle's medium (DMEM) containing 10% FBS and 0.1% penicillin-streptomycin at 37° C. and 5% CO2. Cells were subcultured into 24-well plates for protein synthesis, degradation, and cell viability studies and into 6-well plates for Western blot analyses (Greiner Bio One, Monroe, N.C.). Once cells reached 90% confluence, differentiation was induced by lowering the serum concentration to 2%, and medium was changed every 2 days. […] NIH 3T3 murine embryonic fibroblast cell line (ATCC #CCL-92) was maintained in DMEM and 10% FBS at 37° C. in 5% CO2, and passaged every 3-4 days.
In various aspects, protein degradation is measured to determine the effect of brassinosteroid on a particular protein. All known methods for measuring protein degradation are included in the methods of the disclosure. The effect of brassinosteroids on protein degradation was investigated in fully differentiated myotubes as described by Fawcett et al. (Arch. Biochem. Biophys. 385:357-363, 2001) with slight modifications. Fully differentiated myotubes were incubated for 16 h to allow labeling of cellular proteins with 1.5 μCi/mL [^3H]-phenylalanine. […] The incubation was stopped by placing the cells on ice, and protein in the medium was precipitated with 5% trichloroacetic acid. Specific radioactivity of protein-free phenylalanine was quantified using liquid scintillation counter LS 6500 (Beckman Coulter, Fullerton, Calif.) and normalized to mg of total cell protein determined by BCA protein assay (Pierce Biotechnology, Rockford, Ill.).
The bioactivity of HB and its analogs (as shown in Table 3) were also evaluated by measuring decreases in protein degradation in the L6 rat skeletal muscle cells in vitro. Cells were labeled overnight with [^3H]-phenylalanine and subsequently treated for 4 h in triplicate with vehicle (0.1% ethanol) or test compound (10 μM), and protein degradation was assessed as release of acid-soluble [^3H]-phenylalanine into the media normalized by total protein (Table 3).

The subject of data set [4] is L6 rat myotubes. Nature of the data set: Protein synthesis, [3H]-phenylalanine incorporation in myotubes. The class given is cell-based. The settings on record: 10 μM, 4 h. As to the method:
In some aspects, cell culture experiments were carried out. Rat L6 skeletal muscle cell line CRL-1458 was obtained from ATCC (Manassas, Va.). Myoblasts were routinely maintained in Dulbecco's modified Eagle's medium (DMEM) containing 10% FBS and 0.1% penicillin-streptomycin at 37° C. and 5% CO2. Cells were subcultured into 24-well plates for protein synthesis, degradation, and cell viability studies and into 6-well plates for Western blot analyses (Greiner Bio One, Monroe, N.C.). Once cells reached 90% confluence, differentiation was induced by lowering the serum concentration to 2%, and medium was changed every 2 days. After 7-9 days of culture the myoblasts had fused into multinucleated myotubes (Mandel et al., Nature 251:618-620, 1974). NIH 3T3 murine embryonic fibroblast cell line (ATCC #CCL-92) was maintained in DMEM and 10% FBS at 37° C. in 5% CO2, and passaged every 3-4 days.
In various aspects, protein synthesis is measured to determine the effect of brassinosteroid on a particular protein. All known methods for measuring protein synthesis are included in the methods of the disclosure. In brassinosteroid dose response studies, fully differentiated myotubes were washed with serum-free DMEM and treated in triplicate with vehicle (0.1% ethanol), increasing concentrations of HB, or 6.5 nM of insulin-like growth factor-1 (IGF-1) as a positive control. Compounds were added to serum-free medium containing 0.5 μCi/mL [^3H]-phenylalanine and incubated for 4 h. For the HB time course study, fully differentiated myotubes were treated with 3 μM HB for 1-24 h using the same culture conditions. The incubation was stopped by placing cells on ice, discarding the medium, and washing the cells extensively with ice-cold PBS to remove the non-incorporated radiolabel. Proteins were precipitated with 5% trichloroacetic acid and dissolved in 0.5N NaOH (Montgomery et al., Methods Cell. Sci. 24:123-129, 2002). Specific radioactivity of protein-bound phenylalanine was quantified using liquid scintillation counter LS 6500 (Beckman Coulter, Fullerton, Calif.) and normalized to mg of total protein determined by BCA protein assay (Pierce Biotechnology, Rockford, Ill.).
The bioactivity of HB and its analogs was evaluated by measuring increases in protein synthesis in the L6 rat skeletal muscle cells in vitro. Cells were incubated for 4 h with [^3H]-phenylalanine and treated in triplicate with vehicle (0.1% ethanol) or test compound (10 μM), and protein synthesis was measured as incorporation of [^3H]-phenylalanine into protein normalized by total protein (Table 3). Under these conditions, both HB and (22S,23S)-homocastasterone increased protein synthesis by 37.2±5.9% (p<0.001) and 41.0±2.7% (p<0.001), respectively. This protein synthesis increase compared favorably to the biological activity of IGF-1 at 6.5 nM (42.5±4.5%, p<0.001) that served as a positive control in this assay. Removal of the 2α-hydroxyl group and fluorination at C-3 in the A ring (compound IDs 3-4 in Table 3) led to about a 50% decrease in bioactivity (24.6±5.3%, p<0.01 and 22.5±2.7%, p<0.01, respectively) compared to the positive control. However, there was still an increase in protein synthesis. […] Modifications in the side chain (compound IDs 7-9 in Table 3) abolished the activity.

Data set [5] concerns 3T3 Swiss fibroblast monolayers. The data set is described as follows: Scratch wound closure in vitro. In kind it is cell-based, mouse. The settings on record: for Scratch wound closure at 5 μM, % of control: 12 h (Table 6). As to the method:
3T3 fibroblasts were seeded into 24-well dishes at a concentration of 3×10^5 cells/ml and cultured to nearly confluent cell monolayers. On the day of the experiment, a linear wound was generated in the monolayer with a sterile 100 μl plastic pipette tip and any cellular debris was removed by washing cells once with sterile PBS. Fresh DMEM medium containing vehicle (0.1% ethanol), positive control (0.5% FBS), or various concentrations of the fractions, sub-fractions or pure compounds was added to a set of 3 wells per dose and incubated for 12 h at 37° C. with 5% CO2. Cells were then visualized with 20 μl of 10% methylene blue in PBS for 5 min. Three representative images of the scratched areas from each well were photographed at 0 and 12 h to estimate the scratch wound closure. Images were analyzed using ImageJ program (NIH, Bethesda, Md.) and % wound closure was calculated relative to vehicle control and was reported as wound closure % over control (Table 4). 3T3 Swiss fibroblast were seeded into 24-well tissue culture at a concentration of 3×10^5 cells/ml and cultured to nearly confluent cell monolayers. Then, a linear wound was generated in the monolayer with a sterile 100 μl plastic pipette tip. Any cellular debris was removed by washing with PBS. DMEM medium with vehicle (0.1% ethanol), FBS (1%, positive control), or various concentrations of brassinosteroids were added to a set of 3 wells per dose and incubated for 12 h at 37° C. with 5% CO2. Cells were visualized in 10% methylene blue for 5 minutes. Three representative images from each well of the scratched areas under each condition were photographed to estimate the relative migration of cells at 0 and 12 h post-treatment. Data were analyzed using ImageJ software available online from the National Institutes of Health (rsbweb.nih.gov/ij/) by calculating the percentage of scratch closure at each dose point relative to control.

The subject of a further data set is 3T3 mouse fibroblasts. Nature of the data set: Cell proliferation, BrdU assay. In kind it is cell-based. Conditions: 24 h. As to the method:
as §3

Data set [6] concerns 3T3 Swiss fibroblast monolayers. Conditions: PDGF 2 nM reference treatment, reported previously (Schmidt et al.); cited from earlier work.

The values that follow come from patent US20140128357A1, “METHODS OF PRODUCING AND USING BRASSINOSTEROIDS TO PROMOTE GROWTH, REPAIR AND MAINTENANCE OF SKELETAL MUSCLE AND SKIN” (Rutgers University, priority 2010, published 2014).

What is called IC50 is the concentration at which inhibition is half-maximal. The low end stands for higher potency, the high end for lower potency.

As for `CC(C)[C@@H](C)[C@@H](O)[C@H](O)[C@@H](C)[C@H]1CC[C@H]2[C@@H]3COC(=O)[C@H]4C[C@H](O)[C@H](O)C[C@]4(C)[C@H]3CC[C@]12C` [24-Epibrassinolide], the “median lethal dose (LD50)” value with mice is listed as “higher than 1000 mg/kg”; in the data set on rats it was “higher than 2000 mg/kg”.
Turning to `CC[C@@H](C(C)C)[C@H](O)[C@@H](O)[C@@H](C)[C@H]1CC[C@H]2[C@@H]3CC(=O)[C@H]4C[C@H](F)CC[C@]4(C)[C@H]3CC[C@]12C` [Compound 4, (22S,23S,24S)-3α-fluoro-22,23-dihydroxy-24-ethyl-5α-cholestan-6-one], the “cytotoxicity compared to the original brassinosteroids” value in data set [1] is “increased cytotoxicity”. The IC50 in [2] is approximately 30 µM. For the same compound, the “Protein degradation (% decrease over control)” value in the data set on L6 rat myotubes [3] is on record as −16.3 ± 4.2%. Besides, in the data set on L6 rat myotubes [4], the “Protein synthesis (% increase over control)” value was 22.5±2.7%. Further, the “Scratch wound closure at 5 μM, % of control” value in data set [5] turned out to be 27.7 ± 4.0 %. In [5] (10 μM, 12 h (Table 4)), the “Wound Closure (% over control)” value is 27.7 ± 4.0 %. The “fibroblast migration activity in words” value in [5] (0.1-10 μM, 12 h) is “high activity, similar to HB”.
Take `CC[C@@H](C(C)C)[C@@H](O)[C@H](O)[C@@H](C)[C@H]1CC[C@H]2[C@@H]3COC(=O)[C@H]4C[C@H](O)[C@H](O)C[C@]4(C)[C@H]3CC[C@]12C` [Compound 7, (22R,23R,24S)-2α,3α-22,23-tetrahydroxy-24-ethyl-B-homo-7-oxa-5α-cholestan-6-one]: the IC50 in [1] is more than 30 µM. The “Protein degradation (% decrease over control)” value with L6 rat myotubes [3] was −14.8 ± 3.8%. Moreover, the “Protein synthesis (% increase over control)” value in the data set with L6 rat myotubes [4] is reported as 13.1 ± 2.4%. Besides, the “Cell proliferation at 5 μM, % of control” value in the data set on 3T3 mouse fibroblasts is 29.1 ± 3.4 %. Besides, in data set [5], the “Scratch wound closure at 5 μM, % of control” value was 16.5 ± 0.5%.
In the same order, the values of `CC(C)[C@H](C)[C@H](O)[C@@H](O)[C@@H](C)[C@H]1CC[C@H]2[C@@H]3COC(=O)[C@H]4C[C@@H](O)[C@H](O)C[C@]4(C)[C@H]3CC[C@]12C` [Compound 8, (22S,23S,24R)-2α,3α-22,23-tetrahydroxy-24-methyl-B-homo-7-oxa-5α-cholestan-6-one] are more than 30 µM, −5.4 ± 7.9%, 4.1 ± 1.7%, 31.9 ± 5.3 % and 13.2 ± 1.5%.
In turn, `CC(C)C(C)C(O)C(O)C(C)C1CCC2C3COC(=O)C4CC(O)C(O)CC4(C)C3CCC12C` [Compound 9, (22R,23R,24R)-2α,3α-22,23-tetrahydroxy-24-methyl-B-homo-7-oxa-5α-cholestan-6-one] showed an IC50 in data set [1] of more than 30 µM. For the same compound, in the data set with L6 rat myotubes [3], the “Protein degradation (% decrease over control)” value is −6.7 ± 7.9%. In the data set with L6 rat myotubes [4], the “Protein synthesis (% increase over control)” value is on record as 11.7 ± 3.9%. Besides, in the data set on 3T3 mouse fibroblasts, the “Cell proliferation at 5 μM, % of control” value is 31.0 ± 2.6 %. The “Scratch wound closure at 5 μM, % of control” value in data set [5] is given as 8.1 ± 1.6%.
Turning to PDGF, the “Scratch wound closure, % of control” value in data set [6] is given as 64.8 ± 1.7 %.
